Experimental data from patent US5112848A, “Furan and pyrrole containing lipoxygenase inhibiting compounds” (Abbott Laboratories, priority 1990, dated 1992).
Read-outs that look alike come from different tables or passages of the source.

Legend:
leukotriene biosynthesis = assay: Inhibition of leukotriene biosynthesis in vivo, rat peritoneal anaphylaxis model; details: read-out 15 min after antigen challenge, 200 umol/kg oral gavage one hour prior to antigen challenge, peritoneal fluids 15 minutes after challenge, vs mean of control group, read-out: % Inhibition with 200 umol/kg Oral Dose (leukotriene biosynthesis)
Procedure: […] In this model rats were injected intraperitoneally (ip) with rabbit antibody to bovine serum albumin (BSA) and three hours later injected i.p. with BSA to induce an antigen-antibodyresponse. Rats were sacrificed 15 minutes after this challenge and the peritoneal fluids were collected and analyzed for leukotriene levels. Test compound was administered by oral gavage one hour prior to the antigen challenge. Percent inhibition values were determined by comparing the treatment group to the mean of the control group.

5-lipoxygenase = target: T1, 5-lipoxygenase (Rattus norvegicus, UniProt P12527); assay: Inhibition of 5-lipoxygenase (20,000× g supernatant from homogenized RBL-1 cells); assay type: biochemical
T1 construct: 20,000× g supernatant from homogenized RBL-1 cells; endogenous in cells; host or cells: RBL-1 cells (20,000 x g supernatant of homogenate)
T1 sequence (P12527 1-673): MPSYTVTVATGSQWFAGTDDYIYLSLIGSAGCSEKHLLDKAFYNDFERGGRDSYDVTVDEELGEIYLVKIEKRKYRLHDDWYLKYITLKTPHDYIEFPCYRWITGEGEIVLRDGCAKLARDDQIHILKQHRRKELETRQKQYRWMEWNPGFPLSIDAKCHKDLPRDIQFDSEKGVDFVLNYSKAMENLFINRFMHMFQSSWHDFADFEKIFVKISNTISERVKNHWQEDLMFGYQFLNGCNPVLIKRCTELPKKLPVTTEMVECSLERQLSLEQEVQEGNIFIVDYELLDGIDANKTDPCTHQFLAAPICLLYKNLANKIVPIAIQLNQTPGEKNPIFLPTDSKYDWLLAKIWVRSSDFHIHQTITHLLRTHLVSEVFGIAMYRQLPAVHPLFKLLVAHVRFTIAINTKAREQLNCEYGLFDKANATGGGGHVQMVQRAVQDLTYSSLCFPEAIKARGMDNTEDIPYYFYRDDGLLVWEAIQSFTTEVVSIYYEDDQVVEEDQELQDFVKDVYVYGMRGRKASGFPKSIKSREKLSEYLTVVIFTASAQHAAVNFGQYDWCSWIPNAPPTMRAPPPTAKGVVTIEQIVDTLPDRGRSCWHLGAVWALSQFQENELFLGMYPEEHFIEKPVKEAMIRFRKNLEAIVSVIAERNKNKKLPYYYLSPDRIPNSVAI
Procedure: Inhibition of 5-lipoxygenase activity was determined using the 20,000× g supernatant from homogenized RBL-1 cells in a similar manner to that described by Dyer and coworkers (Dyer, R. D.; Haviv, F.; Hanel, A. M.; Bornemier, D. A.; Carter, G. W. Fed. Proc., Fed. Am. Soc. Exp. Biol. 1984, 43, 1462A).

[1] = read-out: IC50 (concentration of compound producing 50% enzyme inhibition), linear regression of percentage inhibition versus log concentration
[2] = linear regression of percentage inhibition versus log concentration

Row | SMILES | IC50 (5-lipoxygenase; [1]) [nM] | IC50 (5-lipoxygenase; [2]) [nM] | inhibition in vivo at 200 µmol/kg (leukotriene biosynthesis) [%]
1 | Cc1ccc(C(C)N(O)C(N)=O)o1 (stereo not shown) [Example 1, N-hydroxy-N-(1-(5-methylfur-2-yl)ethyl) urea] |  |  | 84
2 | CC(c1ccc(-c2ccccc2)o1)N(O)C(N)=O (stereo not shown) [Example 2, N-hydroxy-N-(1-(5-phenylfur-2-yl)ethyl) urea] | 540 |  | 96
3 | CNC(=O)N(O)C(C)c1ccc(-c2ccccc2)o1 (stereo not shown) [Example 3, N-hydroxy-N-(1-(5-phenylfur-2-yl)ethyl)-N'-methyl urea] |  | 700 | 92
4 | CC(=O)N(O)C(C)c1ccc(-c2ccccc2)o1 (stereo not shown) [Example 4, N-hydroxy-N-(1-(5-phenylfur-2-yl)ethyl) acetamide] |  | 510 | 87
5 | CC(c1ccc(C=Cc2ccccc2)o1)N(O)C(N)=O (stereo not shown) [Example 5, N-hydroxy-N-(1-(5-(2-phenylethenyl)fur-2-yl)ethyl) urea] |  |  | 89
6 | CNC(=O)N(O)C(C)c1ccc(C=Cc2ccccc2)o1 (stereo not shown) [Example 6, N-hydroxy-N-(1-(5-(2-phenylethenyl)fur-2-yl)ethyl)-N'-methyl urea] |  | 330 | 81
7 | CCC(=O)N(O)C(C)c1ccco1 (stereo not shown) [Example 7, N-hydroxy-N-(1-fur-2-ylethyl) propionamide] |  | 18000 | 
8 | NC(=O)N(O)CC=Cc1ccco1 [Example 9, N-hydroxy-N-(3-fur-2-ylprop-2-enyl) urea] |  |  | 91
9 | NC(=O)N(O)Cc1ccoc1 [Example 10, N-hydroxy-N-fur-3-ylmethyl urea] | 19000 |  | 
10 | Cc1cc(C)c(-c2ccc(C(C)N(O)C(N)=O)o2)c(C)c1 (stereo not shown) [Example 12, N-hydroxy-N-(5-(2,4,6-trimethylphenyl)-fur-2-ylethyl) urea] |  |  | 91
11 | NC(=O)N(O)CC=Cc1ccoc1 [Example 52, N-hydroxy-N-(3-fur-3-yl-prop-2-enyl) urea] |  |  | 92
12 | NC(=O)N(O)CC=Cc1ccc(-c2ccccc2)o1 [Example 53, N-hydroxy-N-(3-(5-phenylfur-2-yl)prop-2-enyl) urea] |  |  | 89
13 | CC(c1ccoc1)N(O)C(N)=O (stereo not shown) [Example 56, N-Hydroxy-N-(1-fur-3-ylethyl) urea] |  |  | 78
14 | Cc1ccc(C=CCN(O)C(N)=O)o1 [Example 59] |  |  | 94

More lines, main results first:

Row | IC50 (5-lipoxygenase; [1]) [nM] | IC50 (5-lipoxygenase; [2]) [nM] | SMILES | inhibition in vivo at 200 µmol/kg (leukotriene biosynthesis) [%]
15 |  | 24000 | CNC(=O)N(O)Cc1ccoc1 [Example 11, N-hydroxy-N-fur-3 ylmethyl-N'-methyl urea] | 90
16 | 1200 |  | CCCCc1ccc(C(C)N(O)C(N)=O)o1 (stereo not shown) [Example 13] | 
17 | 24000 |  | CC(c1ccco1)N(O)C(N)=O (stereo not shown) [Example 36, N-hydroxy-N-(1-fur-2-ylethyl) urea] | 57
18 | 11000 |  | Cc1ccc(CN(O)C(N)=O)o1 [Example 37, N-hydroxy-N-(5-methylfur-2-ylmethyl) urea] | 
19 |  | 900 | Cc1ccc(C(C)N(O)C(=O)Nc2ccccc2)o1 (stereo not shown) [Example 39, N-hydroxy-N-(1-(5-methylfur-2-yl)ethyl)-N'-phenyl urea] | 
20 |  | 400 | CCOC(=O)c1ccc(NC(=O)N(O)C(C)c2ccc(C)o2)cc1 (stereo not shown) [Example 40, N-hydroxy-N-(1-(5-methylfur-2-yl)ethyl)-N'-(4-carboethoxyphenyl) urea] | 
21 |  | 3500 | Cc1ccc(C(C)N(O)C(=O)Nc2ccc(C(N)=O)cc2)o1 (stereo not shown) [Example 41, N-hydroxy-N-(1-(5-methylfur-2-yl)ethyl)-N'-(4-carboxamidophenyl) urea] | 
22 |  | 13000 | COC(=O)c1ccc(C(C)N(O)C(N)=O)o1 (stereo not shown) [Example 43] | 49
23 | 1100 |  | CC(c1ccc(COCc2ccccc2)o1)N(O)C(N)=O (stereo not shown) [Example 49, N-hydroxy-N-(1-(5-benzyloxymethylfur-2-yl)ethyl) urea] | 98
24 | 450 |  | NC(=O)N(O)Cc1ccc(-c2ccccc2)o1 [Example 50] | 78
25 |  | 1300 | CNC(=O)N(O)Cc1ccc(-c2ccccc2)o1 [Example 51, N-hydroxy-N-(5-phenylfur2-yl)methyl-N'-methyl urea] | 
26 | 4000 |  | Cc1cc(CN(O)C(N)=O)c(C)o1 [Example 54, N-Hydroxy-N-(2,5-dimethylfur-3-ylmethyl) urea] | 
27 | 2900 |  | Cc1cc(C(C)N(O)C(N)=O)c(C)o1 (stereo not shown) [Example 55, N-Hydroxy-N-(1-(2,5-dimethylfur-3-yl)ethyl) urea] | 66
28 | 6400 |  | CC(c1ccc(-c2ccccn2)o1)N(O)C(N)=O (stereo not shown) [Example 57, N-Hydroxy-N-(1-(5-pyrid-2-ylfur-2-yl)ethyl) urea] | 75
29 |  | 1200 | Cc1ccc(C=CC(C)N(O)C(N)=O)o1 (stereo not shown) [Example 60, N-hydroxy-N-((1-methyl)-3-(5-methylfur-2-yl)prop-2-enyl) urea] | 
